Test results as given in patent publication EP0565593B1, “REDUCING PESTICIDAL INTERACTIONS IN CROPS” (priority 1990, dated 1992).
Read-outs that look alike come from different tables or passages of the source.

What was measured:
Shattercane (SHCA) = format: in vivo
Velvetleaf (VELE) [1] = format: in vivo, Abutilon theophrasti
Giant foxtail (GIFT) = experiment: whole plant or invertebrate; format: in vivo
Velvetleaf (VELE) [2] = experiment: whole plant or invertebrate; format: in vivo, Abutilon theophrasti
Corn [3] = test system: Corn
Corn [4] = test system: Corn; remark: listed apart in the source
[5] = […], observed 9 days later (Table 29)
[6] = […], observed 9 days later (Table 30)
[7] = […], PPI, 13 days after PPI (Table 31)
[8] = […], observed 8 days later (Table 32)
[9] = […], observed 8 days later (Table 33)
[10] = […], PPI, 14 days after PPI (Table 34)
[11] = Table 50, Biocide No. 8 alone 8.96 kg/Ha PPI, no herbicide, no antidote
[12] = Table 51, Biocide No. 8 alone 8.96 kg/Ha PPI, observed 13 days after treatment
[13] = […], observed 7 days after POE (Table 35)
[14] = […], observed 7 days after POE (Table 36)

## C[n+]1cccc(C2CN(C(=O)C(Cl)Cl)C(C)(C)O2)c1 (stereo not shown) [compound 37]
Shattercane (SHCA); [5]
  % Inhibition SHCA: 80%
Shattercane (SHCA); [6]
  % Inhibition SHCA: 35%
Velvetleaf (VELE) [1]; [5]
  % Inhibition VELE: 90%
Velvetleaf (VELE) [1]; [6]
  % Inhibition VELE: 75%
Giant foxtail (GIFT); [7]
  % Inhibition GIFT: 80%
Velvetleaf (VELE) [2]; [7]
  % Inhibition VELE: 85%
Corn [3]; [5]
  % Inhibition Corn: 65%
Corn [3]; [6]
  % Inhibition Corn: 50%
Corn [4]; [7]
  % Inhibition Corn: 60%

## O=C(COC(c1ccccc1)c1ccccc1)Oc1ccccc1 [compound 50]
Shattercane (SHCA); [8]
  % Inhibition SHCA: 75%
Shattercane (SHCA); [9]
  % Inhibition SHCA: 25%
Velvetleaf (VELE) [1]; [8]
  % Inhibition VELE: 80%
Velvetleaf (VELE) [1]; [9]
  % Inhibition VELE: 70%
Giant foxtail (GIFT); [10]
  % Inhibition GIFT: 70%
Velvetleaf (VELE) [2]; [10]
  % Inhibition VELE: 95%
Corn [3]; [8]
  % Inhibition Corn: 20%
Corn [3]; [9]
  % Inhibition Corn: 45%
Corn [4]; [10]
  % Inhibition Corn: 60%

## O=C(COC(c1ccccc1)c1ccccc1)OCc1ccoc1 [compound 55]
Shattercane (SHCA); [8]
  % Inhibition SHCA: 75%
Shattercane (SHCA); [9]
  % Inhibition SHCA: 25%
Velvetleaf (VELE) [1]; [8]
  % Inhibition VELE: 85%
Velvetleaf (VELE) [1]; [9]
  % Inhibition VELE: 70%
Giant foxtail (GIFT); [10]
  % Inhibition GIFT: 65%
Velvetleaf (VELE) [2]; [10]
  % Inhibition VELE: 90%
Corn [3]; [8]
  % Inhibition Corn: 25%
Corn [3]; [9]
  % Inhibition Corn: 50%
Corn [4]; [10]
  % Inhibition Corn: 45%

## Cn1cccc1C1CN(C(=O)C(Cl)Cl)C(C)(C)O1 (stereo not shown) [compound 35]
Shattercane (SHCA); [5]
  % Inhibition SHCA: 75%
Shattercane (SHCA); [6]
  % Inhibition SHCA: 30%
Velvetleaf (VELE) [1]; [5]
  % Inhibition VELE: 90%
Velvetleaf (VELE) [1]; [6]
  % Inhibition VELE: 65%
Giant foxtail (GIFT); [7]
  % Inhibition GIFT: 70%
Velvetleaf (VELE) [2]; [7]
  % Inhibition VELE: 80%
Corn [3]; [5]
  % Inhibition Corn: 20%
Corn [3]; [6]
  % Inhibition Corn: 35%
Corn [4]; [7]
  % Inhibition Corn: 40%

## CC1(C)OC(c2cccnc2)CN1C(=O)C(Cl)Cl (stereo not shown) [compound 27]
Shattercane (SHCA); [5]
  % Inhibition SHCA: 75%
Shattercane (SHCA); [6]
  % Inhibition SHCA: 30%
Velvetleaf (VELE) [1]; [5]
  % Inhibition VELE: 85%
Velvetleaf (VELE) [1]; [6]
  % Inhibition VELE: 75%
Giant foxtail (GIFT); [7]
  % Inhibition GIFT: 75%
Velvetleaf (VELE) [2]; [7]
  % Inhibition VELE: 85%
Corn [3]; [5]
  % Inhibition Corn: 25%
Corn [3]; [6]
  % Inhibition Corn: 30%
Corn [4]; [7]
  % Inhibition Corn: 30%

## CCCSP(=O)(OCC)SCCC [Biocide No. 8, O-Ethyl-S,S-dipropyl phosphorothioate, reference compound]
Shattercane (SHCA); [11]
  % Inhibition SHCA: 85%
Velvetleaf (VELE) [1]; [11]
  % Inhibition VELE: 15%
Giant foxtail (GIFT); [12]
  % Inhibition GIFT: 90%
Velvetleaf (VELE) [2]; [12]
  % Inhibition VELE: 20%
Corn [3]; MOCAP alone at 8.96 kg/ha, Example 51
  corn injury: corn stunting, leaf malformations and stand loss
Corn [3]; [11]
  % Inhibition Corn: 30%
Corn [4]; MOCAP applied alone, PPI, Example 52
  corn injury: significant corn injury
Corn [4]; [12]
  % Inhibition Corn: 30%

## Cc1ccc(SC2(C#N)CC2)cc1C [compound 73]
Shattercane (SHCA); [13]
  % Inhibition SHCA: 70%
Shattercane (SHCA); [14]
  % Inhibition SHCA: 35%
Velvetleaf (VELE) [1]; [13]
  % Inhibition VELE: 75%
Velvetleaf (VELE) [1]; [14]
  % Inhibition VELE: 70%
Giant foxtail (GIFT); in vivo
  % Inhibition GIFT: 90%
Velvetleaf (VELE) [2]; in vivo
  % Inhibition VELE: 90%
Corn [3]; [13]
  % Inhibition Corn: 70%
Corn [3]; [14]
  % Inhibition Corn: 70%
Corn [4]; in vivo
  % Inhibition Corn: 70%

## C#CCOC(=O)COC(c1ccccc1)c1ccccc1 [compound 54]
Shattercane (SHCA); [8]
  % Inhibition SHCA: 70%
Shattercane (SHCA); [9]
  % Inhibition SHCA: 20%
Velvetleaf (VELE) [1]; [8]
  % Inhibition VELE: 90%
Velvetleaf (VELE) [1]; [9]
  % Inhibition VELE: 65%
Giant foxtail (GIFT); [10]
  % Inhibition GIFT: 60%
Velvetleaf (VELE) [2]; [10]
  % Inhibition VELE: 90%
Corn [3]; [8]
  % Inhibition Corn: 30%
Corn [3]; [9]
  % Inhibition Corn: 55%
Corn [4]; [10]
  % Inhibition Corn: 55%

## O=C(Oc1ccccc1)c1sc(Cl)nc1C(F)(F)F [compound 64]
Shattercane (SHCA); [13]
  % Inhibition SHCA: 65%
Shattercane (SHCA); [14]
  % Inhibition SHCA: 35%
Velvetleaf (VELE) [1]; [13]
  % Inhibition VELE: 75%
Velvetleaf (VELE) [1]; [14]
  % Inhibition VELE: 70%
Giant foxtail (GIFT); in vivo
  % Inhibition GIFT: 70%
Velvetleaf (VELE) [2]; in vivo
  % Inhibition VELE: 90%
Corn [3]; [13]
  % Inhibition Corn: 20%
Corn [3]; [14]
  % Inhibition Corn: 60%
Corn [4]; in vivo
  % Inhibition Corn: 60%

## CC1Cc2ccccc2C(C)N1C(=O)C(Cl)Cl (stereo not shown) [compound 26]
Shattercane (SHCA); [5]
  % Inhibition SHCA: 70%
Shattercane (SHCA); [6]
  % Inhibition SHCA: 35%
Velvetleaf (VELE) [1]; [5]
  % Inhibition VELE: 90%
Velvetleaf (VELE) [1]; [6]
  % Inhibition VELE: 75%
Giant foxtail (GIFT); [7]
  % Inhibition GIFT: 75%
Velvetleaf (VELE) [2]; [7]
  % Inhibition VELE: 80%
Corn [3]; [5]
  % Inhibition Corn: 40%
Corn [3]; [6]
  % Inhibition Corn: 50%
Corn [4]; [7]
  % Inhibition Corn: 65%

## CCOC(=O)c1sc(Cl)nc1C(F)(F)F [compound 60]
Shattercane (SHCA); [13]
  % Inhibition SHCA: 60%
Shattercane (SHCA); [14]
  % Inhibition SHCA: 35%
Velvetleaf (VELE) [1]; [13]
  % Inhibition VELE: 80%
Velvetleaf (VELE) [1]; [14]
  % Inhibition VELE: 65%
Giant foxtail (GIFT); in vivo
  % Inhibition GIFT: 75%
Velvetleaf (VELE) [2]; in vivo
  % Inhibition VELE: 90%
Corn [3]; [13]
  % Inhibition Corn: 40%
Corn [3]; [14]
  % Inhibition Corn: 60%
Corn [4]; in vivo
  % Inhibition Corn: 60%

## CC1(C)OC(c2cccs2)CN1C(=O)C(Cl)Cl (stereo not shown) [compound 22]
Shattercane (SHCA); [5]
  % Inhibition SHCA: 65%
Shattercane (SHCA); [6]
  % Inhibition SHCA: 25%
Velvetleaf (VELE) [1]; [5]
  % Inhibition VELE: 85%
Velvetleaf (VELE) [1]; [6]
  % Inhibition VELE: 75%
Giant foxtail (GIFT); [7]
  % Inhibition GIFT: 70%
Velvetleaf (VELE) [2]; [7]
  % Inhibition VELE: 80%
Corn [3]; [5]
  % Inhibition Corn: 20%
Corn [3]; [6]
  % Inhibition Corn: 40%
Corn [4]; [7]
  % Inhibition Corn: 45%

## O=C(COC(c1ccccc1)c1ccccc1)Oc1cccc([N+](=O)[O-])c1 [compound 57]
Shattercane (SHCA); [8]
  % Inhibition SHCA: 80%
Shattercane (SHCA); [9]
  % Inhibition SHCA: 35%
Velvetleaf (VELE) [1]; [8]
  % Inhibition VELE: 85%
Giant foxtail (GIFT); [10]
  % Inhibition GIFT: 70%
Velvetleaf (VELE) [2]; [10]
  % Inhibition VELE: 80%
Corn [3]; [8]
  % Inhibition Corn: 15%
Corn [3]; [9]
  % Inhibition Corn: 65%
Corn [4]; [10]
  % Inhibition Corn: 65%

## CC(Cl)C(=O)Nc1nc(C(F)(F)F)c(I)s1 (stereo not shown) [compound 72]
Shattercane (SHCA); [13]
  % Inhibition SHCA: 75%
Shattercane (SHCA); [14]
  % Inhibition SHCA: 30%
Velvetleaf (VELE) [1]; [13]
  % Inhibition VELE: 85%
Velvetleaf (VELE) [1]; [14]
  % Inhibition VELE: 70%
Giant foxtail (GIFT); in vivo
  % Inhibition GIFT: 75%
Velvetleaf (VELE) [2]; in vivo
  % Inhibition VELE: 90%
Corn [3]; [13]
  % Inhibition Corn: 70%
Corn [3]; [14]
  % Inhibition Corn: 60%
Corn [4]; in vivo
  % Inhibition Corn: 75%

## O=C(O)c1sc(Cl)nc1C(F)(F)F [compound 65]
Shattercane (SHCA); [13]
  % Inhibition SHCA: 70%
Shattercane (SHCA); [14]
  % Inhibition SHCA: 30%
Velvetleaf (VELE) [1]; [13]
  % Inhibition VELE: 80%
Velvetleaf (VELE) [1]; [14]
  % Inhibition VELE: 65%
Giant foxtail (GIFT); in vivo
  % Inhibition GIFT: 70%
Velvetleaf (VELE) [2]; in vivo
  % Inhibition VELE: 90%
Corn [3]; [13]
  % Inhibition Corn: 25%
Corn [3]; [14]
  % Inhibition Corn: 50%
Corn [4]; in vivo
  % Inhibition Corn: 45%

## CCC1c2ccccc2CCN1C(=O)C(Cl)Cl (stereo not shown) [compound 39]
Shattercane (SHCA); [5]
  % Inhibition SHCA: 75%
Shattercane (SHCA); [6]
  % Inhibition SHCA: 40%
Velvetleaf (VELE) [1]; [5]
  % Inhibition VELE: 90%
Velvetleaf (VELE) [1]; [6]
  % Inhibition VELE: 80%
Giant foxtail (GIFT); [7]
  % Inhibition GIFT: 85%
Velvetleaf (VELE) [2]; [7]
  % Inhibition VELE: 95%
Corn [3]; [5]
  % Inhibition Corn: 25%
Corn [3]; [6]
  % Inhibition Corn: 40%
Corn [4]; [7]
  % Inhibition Corn: 50%

## O=C(O)COC(c1ccccc1)c1cccc(C(F)(F)F)c1 (stereo not shown) [compound 49]
Shattercane (SHCA); [8]
  % Inhibition SHCA: 70%
Shattercane (SHCA); [9]
  % Inhibition SHCA: 30%
Velvetleaf (VELE) [1]; [8]
  % Inhibition VELE: 90%
Velvetleaf (VELE) [1]; [9]
  % Inhibition VELE: 80%
Giant foxtail (GIFT); [10]
  % Inhibition GIFT: 65%
Velvetleaf (VELE) [2]; [10]
  % Inhibition VELE: 100%
Corn [3]; [8]
  % Inhibition Corn: 45%
Corn [3]; [9]
  % Inhibition Corn: 70%
Corn [4]; [10]
  % Inhibition Corn: 55%

## O=C(C(Cl)Cl)N1CC(c2ccco2)OC1c1ccccc1 (stereo not shown) [compound 36]
Shattercane (SHCA); [5]
  % Inhibition SHCA: 75%
Shattercane (SHCA); [6]
  % Inhibition SHCA: 35%
Velvetleaf (VELE) [1]; [5]
  % Inhibition VELE: 100%
Velvetleaf (VELE) [1]; [6]
  % Inhibition VELE: 80%
Giant foxtail (GIFT); [7]
  % Inhibition GIFT: 75%
Velvetleaf (VELE) [2]; [7]
  % Inhibition VELE: 90%
Corn [3]; [5]
  % Inhibition Corn: 45%
Corn [3]; [6]
  % Inhibition Corn: 45%
Corn [4]; [7]
  % Inhibition Corn: 60%

## O=C(C(Cl)Cl)N1CCCC12CCCC2 [compound 19]
Shattercane (SHCA); [9]
  % Inhibition SHCA: 30%
Shattercane (SHCA); [5]
  % Inhibition SHCA: 80%
Shattercane (SHCA); [6]
  % Inhibition SHCA: 30%
Velvetleaf (VELE) [1]; [9]
  % Inhibition VELE: 70%
Velvetleaf (VELE) [1]; [5]
  % Inhibition VELE: 95%
Velvetleaf (VELE) [1]; [6]
  % Inhibition VELE: 70%
Giant foxtail (GIFT); [7]
  % Inhibition GIFT: 75%
Giant foxtail (GIFT); [10]
  % Inhibition GIFT: 65%
Velvetleaf (VELE) [2]; [7]
  % Inhibition VELE: 80%
Velvetleaf (VELE) [2]; [10]
  % Inhibition VELE: 90%
Corn [3]; [9]
  % Inhibition Corn: 55%
Corn [3]; [5]
  % Inhibition Corn: 20%
Corn [3]; [6]
  % Inhibition Corn: 35%
Corn [4]; [7]
  % Inhibition Corn: 55%
Corn [4]; [10]
  % Inhibition Corn: 35%
